In ChEMBL document CHEMBL5291721, “A preclinical secondary pharmacology resource illuminates target-adverse drug reaction associations of marketed drugs” (Nat Commun, 2023):

Assays:
[1] = target: D(3) dopamine receptor (Homo sapiens, UniProt P35462)
[2] = target: Vasopressin V2 receptor (Homo sapiens, UniProt P30518)
[3] = target: 5-hydroxytryptamine receptor 2B (Homo sapiens, UniProt P41595); format: functional, cell-based
[4] = target: 3',5'-cyclic-AMP phosphodiesterase 4D (Homo sapiens, UniProt Q08499); format: functional
[5] = target: T1, B2 bradykinin receptor (Homo sapiens, UniProt P30411)
T1 sequence (P30411 whole entry): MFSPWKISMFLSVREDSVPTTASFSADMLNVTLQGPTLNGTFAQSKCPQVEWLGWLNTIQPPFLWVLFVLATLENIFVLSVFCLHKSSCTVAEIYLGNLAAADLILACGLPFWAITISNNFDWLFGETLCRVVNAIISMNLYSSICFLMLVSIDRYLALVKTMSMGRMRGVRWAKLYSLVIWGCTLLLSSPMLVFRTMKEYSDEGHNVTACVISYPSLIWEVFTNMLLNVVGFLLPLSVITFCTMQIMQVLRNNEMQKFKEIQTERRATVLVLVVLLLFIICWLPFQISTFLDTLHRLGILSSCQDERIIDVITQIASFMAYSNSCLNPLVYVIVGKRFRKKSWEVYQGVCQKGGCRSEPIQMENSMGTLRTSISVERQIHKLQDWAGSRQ

[6] = target: Gamma-aminobutyric acid receptor subunit alpha-1 (Rattus norvegicus, UniProt P62813); format: functional
[7] = target: Beta-1 adrenergic receptor (Homo sapiens, UniProt P08588); format: functional
[8] = target: Bile salt export pump (Homo sapiens, UniProt O95342); format: functional
Note: assay procedure not described here.

Vasopressin V2 receptor, sequence (P30518 whole entry): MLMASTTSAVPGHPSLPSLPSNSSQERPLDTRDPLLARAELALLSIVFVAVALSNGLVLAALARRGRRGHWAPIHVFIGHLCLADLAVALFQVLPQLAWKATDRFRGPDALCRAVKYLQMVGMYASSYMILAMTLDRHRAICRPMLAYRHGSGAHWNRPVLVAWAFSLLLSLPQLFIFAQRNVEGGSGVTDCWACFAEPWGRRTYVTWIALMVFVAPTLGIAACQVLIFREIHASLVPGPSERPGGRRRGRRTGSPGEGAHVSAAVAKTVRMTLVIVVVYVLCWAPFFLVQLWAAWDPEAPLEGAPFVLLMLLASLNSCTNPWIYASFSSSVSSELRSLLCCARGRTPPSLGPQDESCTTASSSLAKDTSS
Gamma-aminobutyric acid receptor subunit alpha-1, sequence (P62813 whole entry): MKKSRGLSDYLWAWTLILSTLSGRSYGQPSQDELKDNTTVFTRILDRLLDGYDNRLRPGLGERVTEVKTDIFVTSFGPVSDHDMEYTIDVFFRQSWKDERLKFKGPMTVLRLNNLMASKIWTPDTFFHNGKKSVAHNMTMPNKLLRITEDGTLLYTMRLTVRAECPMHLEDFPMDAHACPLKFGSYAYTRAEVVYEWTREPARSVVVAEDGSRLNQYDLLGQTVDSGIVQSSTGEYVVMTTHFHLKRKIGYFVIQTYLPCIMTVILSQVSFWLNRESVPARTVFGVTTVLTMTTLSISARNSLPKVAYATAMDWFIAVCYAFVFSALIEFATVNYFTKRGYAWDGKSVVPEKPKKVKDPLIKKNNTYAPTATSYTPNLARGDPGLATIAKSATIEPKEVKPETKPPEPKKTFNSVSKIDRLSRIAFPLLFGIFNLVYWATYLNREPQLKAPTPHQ
5-hydroxytryptamine receptor 2B, sequence (P41595 whole entry): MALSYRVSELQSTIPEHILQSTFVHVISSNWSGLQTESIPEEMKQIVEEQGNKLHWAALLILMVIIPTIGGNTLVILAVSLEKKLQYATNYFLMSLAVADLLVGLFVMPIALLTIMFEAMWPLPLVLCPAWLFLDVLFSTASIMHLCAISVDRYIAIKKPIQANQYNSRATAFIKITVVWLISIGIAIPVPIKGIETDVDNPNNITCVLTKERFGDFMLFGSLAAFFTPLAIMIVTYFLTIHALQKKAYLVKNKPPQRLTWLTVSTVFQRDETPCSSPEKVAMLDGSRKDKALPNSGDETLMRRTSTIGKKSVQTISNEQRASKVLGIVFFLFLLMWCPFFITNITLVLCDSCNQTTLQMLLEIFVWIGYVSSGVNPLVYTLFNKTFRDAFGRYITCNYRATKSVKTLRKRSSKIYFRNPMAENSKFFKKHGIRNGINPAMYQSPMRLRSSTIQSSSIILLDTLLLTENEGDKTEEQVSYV
3',5'-cyclic-AMP phosphodiesterase 4D, sequence (Q08499 whole entry): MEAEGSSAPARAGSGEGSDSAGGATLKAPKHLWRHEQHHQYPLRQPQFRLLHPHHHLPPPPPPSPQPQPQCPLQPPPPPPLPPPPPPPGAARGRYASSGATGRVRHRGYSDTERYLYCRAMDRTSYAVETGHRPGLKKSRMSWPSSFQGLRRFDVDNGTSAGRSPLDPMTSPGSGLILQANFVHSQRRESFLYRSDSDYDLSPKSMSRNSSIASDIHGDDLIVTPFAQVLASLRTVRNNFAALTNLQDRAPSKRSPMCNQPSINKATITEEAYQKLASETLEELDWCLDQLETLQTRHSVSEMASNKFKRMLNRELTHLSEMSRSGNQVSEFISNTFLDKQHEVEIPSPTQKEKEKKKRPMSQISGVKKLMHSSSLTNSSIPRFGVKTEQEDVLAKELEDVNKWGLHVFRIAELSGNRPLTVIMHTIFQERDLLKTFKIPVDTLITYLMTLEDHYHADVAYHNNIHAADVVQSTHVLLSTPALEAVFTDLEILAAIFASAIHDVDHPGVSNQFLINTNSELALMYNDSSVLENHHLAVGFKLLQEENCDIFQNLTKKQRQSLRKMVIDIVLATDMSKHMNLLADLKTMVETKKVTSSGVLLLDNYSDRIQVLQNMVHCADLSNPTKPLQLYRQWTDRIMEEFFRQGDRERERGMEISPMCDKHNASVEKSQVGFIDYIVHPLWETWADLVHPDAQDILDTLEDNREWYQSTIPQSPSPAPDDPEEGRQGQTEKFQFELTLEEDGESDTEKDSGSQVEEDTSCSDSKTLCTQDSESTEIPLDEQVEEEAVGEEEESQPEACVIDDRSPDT
Bile salt export pump, sequence (O95342 whole entry): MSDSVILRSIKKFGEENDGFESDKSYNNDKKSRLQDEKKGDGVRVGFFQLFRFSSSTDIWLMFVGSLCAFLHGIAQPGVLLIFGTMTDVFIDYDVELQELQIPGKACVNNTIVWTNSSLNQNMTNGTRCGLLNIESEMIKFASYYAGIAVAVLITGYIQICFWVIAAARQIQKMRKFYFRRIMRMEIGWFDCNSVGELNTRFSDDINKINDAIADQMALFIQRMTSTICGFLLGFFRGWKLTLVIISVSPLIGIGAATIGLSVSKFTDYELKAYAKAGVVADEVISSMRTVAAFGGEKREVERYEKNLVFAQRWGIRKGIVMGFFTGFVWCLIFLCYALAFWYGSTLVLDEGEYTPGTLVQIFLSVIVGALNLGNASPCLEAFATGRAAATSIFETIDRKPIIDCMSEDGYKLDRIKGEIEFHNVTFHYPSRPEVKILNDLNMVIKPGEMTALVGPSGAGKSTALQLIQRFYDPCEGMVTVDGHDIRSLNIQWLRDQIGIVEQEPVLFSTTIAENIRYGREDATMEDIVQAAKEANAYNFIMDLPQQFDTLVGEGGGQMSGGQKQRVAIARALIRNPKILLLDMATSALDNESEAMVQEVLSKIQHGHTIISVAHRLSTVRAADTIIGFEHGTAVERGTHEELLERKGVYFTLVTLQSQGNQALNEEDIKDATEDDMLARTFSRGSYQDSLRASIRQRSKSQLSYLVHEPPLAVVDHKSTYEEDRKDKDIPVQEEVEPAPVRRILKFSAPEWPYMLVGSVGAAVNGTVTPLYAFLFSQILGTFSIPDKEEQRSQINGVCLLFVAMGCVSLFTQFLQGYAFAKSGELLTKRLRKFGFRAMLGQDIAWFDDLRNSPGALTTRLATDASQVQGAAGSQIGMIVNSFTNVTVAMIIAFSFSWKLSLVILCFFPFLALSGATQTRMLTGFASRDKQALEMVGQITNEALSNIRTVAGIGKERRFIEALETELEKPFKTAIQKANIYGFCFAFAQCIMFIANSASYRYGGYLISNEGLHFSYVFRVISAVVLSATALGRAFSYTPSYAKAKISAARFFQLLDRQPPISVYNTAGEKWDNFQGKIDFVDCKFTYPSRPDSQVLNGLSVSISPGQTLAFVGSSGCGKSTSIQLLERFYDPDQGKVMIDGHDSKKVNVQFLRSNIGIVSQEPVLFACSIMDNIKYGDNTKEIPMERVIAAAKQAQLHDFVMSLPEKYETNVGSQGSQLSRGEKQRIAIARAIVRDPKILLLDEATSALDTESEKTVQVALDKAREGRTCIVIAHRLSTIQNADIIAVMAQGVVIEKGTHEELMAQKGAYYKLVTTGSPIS
D(3) dopamine receptor, sequence (P35462 whole entry): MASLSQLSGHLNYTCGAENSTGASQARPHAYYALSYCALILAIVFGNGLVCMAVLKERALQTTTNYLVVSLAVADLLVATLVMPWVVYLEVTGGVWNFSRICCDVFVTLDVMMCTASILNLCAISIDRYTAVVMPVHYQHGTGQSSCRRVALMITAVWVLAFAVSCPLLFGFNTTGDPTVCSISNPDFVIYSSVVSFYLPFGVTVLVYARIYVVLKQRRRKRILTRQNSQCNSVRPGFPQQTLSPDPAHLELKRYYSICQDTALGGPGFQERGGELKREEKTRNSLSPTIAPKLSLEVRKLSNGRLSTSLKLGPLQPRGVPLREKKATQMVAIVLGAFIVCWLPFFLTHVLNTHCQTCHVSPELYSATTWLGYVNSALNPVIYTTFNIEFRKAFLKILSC
Beta-1 adrenergic receptor, sequence (P08588 whole entry): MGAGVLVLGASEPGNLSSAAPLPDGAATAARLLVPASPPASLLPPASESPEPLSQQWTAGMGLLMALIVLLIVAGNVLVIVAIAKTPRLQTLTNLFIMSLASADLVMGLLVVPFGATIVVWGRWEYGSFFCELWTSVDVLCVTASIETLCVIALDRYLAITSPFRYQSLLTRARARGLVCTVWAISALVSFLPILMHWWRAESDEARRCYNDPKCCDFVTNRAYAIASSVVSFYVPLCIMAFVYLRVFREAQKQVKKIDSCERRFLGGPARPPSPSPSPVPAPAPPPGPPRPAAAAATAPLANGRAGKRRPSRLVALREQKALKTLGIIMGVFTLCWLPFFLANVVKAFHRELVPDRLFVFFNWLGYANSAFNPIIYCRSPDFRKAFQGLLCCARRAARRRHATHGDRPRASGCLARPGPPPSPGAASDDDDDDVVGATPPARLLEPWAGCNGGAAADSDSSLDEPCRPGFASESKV

SMILES | AC50 [1] [µM] | AC50 [2] [µM] | AC50 [3] [µM] | AC50 [4] [µM] | AC50 [5] [µM] | AC50 [6] [µM] | AC50 [7] [µM] | AC50 [8] [µM]
CCOc1nc2cccc(C(=O)O)c2n1Cc1ccc(-c2ccccc2-c2nnn[nH]2)cc1 | > 30 | > 30 | > 30 | > 30 | > 30 | > 30 | > 30 | 100
CC(=O)Nc1ccc(CC(=O)O)cc1 [ACTARIT] | > 30 | > 30 | > 30 | > 30 | > 30 | > 30 | > 30 | > 300
CC(C(=O)O)c1ccc2oc(-c3ccc(Cl)cc3)nc2c1 (configuration not stated) [BENOXAPROFEN] | > 30 | > 30 | > 30 | > 30 | > 30 | > 30 | > 30 | 120
CC1(C)S[C@@H]2[C@H](NC(=O)C(C(=O)O)c3ccccc3)C(=O)N2[C@H]1C(=O)O (some centres not stated) [CARBENICILLIN] | > 30 | > 30 | > 30 | > 30 | > 30 | > 30 | > 30 | 210
Cc1nnc(SCC2=C(C(=O)O)N3C(=O)[C@@H](NC(=O)Cn4cnnn4)[C@H]3SC2)s1 [CEFAZOLIN] | > 300 | > 30 | > 300 | > 300 | > 30 | > 300 | > 300 | > 300
CC=CC1=C(C(=O)O)N2C(=O)[C@@H](NC(=O)[C@H](N)c3ccc(O)cc3)[C@H]2SC1 [CEFPROZIL] | 26 | > 30 | > 30 | > 30 | > 30 | > 30 | > 30 | > 300
CC(C)(O/N=C(\C(=O)N[C@@H]1C(=O)N2C(C(=O)[O-])=C(C[n+]3ccccc3)CS[C@H]12)c1csc(N)n1)C(=O)O [CEFTAZIDIME] | > 300 | > 30 | > 300 | > 300 | > 30 | > 300 | > 300 | > 300
CCCNC(=O)NS(=O)(=O)c1ccc(Cl)cc1 [CHLORPROPAMIDE] | > 30 | > 30 | > 10 | > 30 | > 30 | > 10 | > 10 | > 300
Cc1nc(Nc2ncc(C(=O)Nc3c(C)cccc3Cl)s2)cc(N2CCN(CCO)CC2)n1 [DASATINIB] | > 30 | > 30 | > 30 | 28 | > 30 |  | > 30 | 22
Cc1onc(-c2c(F)cccc2Cl)c1C(=O)N[C@@H]1C(=O)N2[C@@H]1SC(C)(C)[C@@H]2C(=O)O [FLOXACILLIN] | > 30 |  | > 30 | > 30 |  | > 30 | > 30 | 50
CC[C@@H](CO)NC(=O)[C@@H]1C=C2c3cccc4c3c(cn4C)C[C@H]2N(C)C1 [METHYSERGIDE] | 0.42 | > 30 |  | > 30 | > 30 | > 10 |  | 180
CN1Cc2c(N)cccc2C(c2ccccc2)C1 (configuration not stated) [NOMIFENSINE] | > 30 | > 30 | > 30 | > 30 | > 30 | > 30 |  | > 300
S=P(N1CC1)(N1CC1)N1CC1 [THIOTEPA] | 9.9 |  | > 30 | > 30 |  | > 30 | > 30 | 83
COc1cc(C(=O)NS(=O)(=O)c2ccccc2C)ccc1Cc1cn(C)c2ccc(NC(=O)OC3CCCC3)cc12 [ZAFIRLUKAST] |  | > 10 |  | 5.4 | > 10 | > 10 | > 10 | 2.28
